Data published in patent EP4603105A1, “PHARMACEUTICAL COMPOSITION CONTAINING CYCLIC COMPOUND HAVING SELECTIVE KRAS INHIBITORY EFFECT AGAINST HRAS AND NRAS” (CHUGAI SEIYAKU KABUSHIKI KAISHA, priority 2022, dated 2024).
pIC50, pKd: −log10 of the molar value.

Experiments:
HRAS wild-type protein = HRAS wild-type protein (Homo sapiens, UniProt P01112); assay: Binding to HRAS by surface plasmon resonance (SPR), KD and KD ratio to KRAS; conditions: ratio of KD with respect to HRAS wild-type protein to KD with respect to KRAS
Chain of HRAS wild-type protein (P01112 whole entry): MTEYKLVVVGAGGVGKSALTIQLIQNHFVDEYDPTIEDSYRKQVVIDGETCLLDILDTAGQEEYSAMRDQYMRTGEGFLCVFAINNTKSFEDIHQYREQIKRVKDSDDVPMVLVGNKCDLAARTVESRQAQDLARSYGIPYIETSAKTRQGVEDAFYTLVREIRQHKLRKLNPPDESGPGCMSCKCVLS
Summary of the method: (§1)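 Running buffer contained 10 µM GDP and 10 mM MgCl2 to keep RAS in the GDP state, with 4% DMSO at pH 7.4. Compounds were flowed at 100 µL/min in 75 s steps of rising concentration over captured biotin-Avi RAS at 30°C. Sensorgrams were fitted 1:1 for KD.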

[1] = biological target: GDP-bound NRAS wild-type protein (Homo sapiens, UniProt P01111); assay: Binding to NRAS by surface plasmon resonance (SPR), KD and KD ratio to KRAS; conditions: ratio of KD with respect to GDP-bound NRAS wild-type protein to KD with respect to KRAS
Chain of GDP-bound NRAS wild-type protein (P01111 whole entry): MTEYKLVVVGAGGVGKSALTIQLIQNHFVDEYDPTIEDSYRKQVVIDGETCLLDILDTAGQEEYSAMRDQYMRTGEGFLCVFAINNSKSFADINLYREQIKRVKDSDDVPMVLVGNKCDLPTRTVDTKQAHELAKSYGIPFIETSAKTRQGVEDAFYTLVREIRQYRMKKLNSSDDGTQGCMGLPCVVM
Summary of the method: as §1

[2] = biological target: GDP-bound KRAS wild-type protein (Homo sapiens, UniProt P01116); assay: Binding to KRAS by surface plasmon resonance (SPR), dissociation constant KD; conditions: Single Cycle Kinetics, 1:1 binding model
Chain of GDP-bound KRAS wild-type protein (P01116 1-188 isoform P01116-2): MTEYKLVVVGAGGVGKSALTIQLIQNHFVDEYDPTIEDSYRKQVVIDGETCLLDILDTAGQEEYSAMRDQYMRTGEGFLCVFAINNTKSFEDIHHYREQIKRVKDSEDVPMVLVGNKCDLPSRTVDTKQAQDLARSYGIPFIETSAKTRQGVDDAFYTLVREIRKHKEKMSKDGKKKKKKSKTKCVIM
Summary of the method: as §1

[3] = tested on: human lung cancer strain NCI-H441; assay: NCI-H441 cell proliferation inhibitory activity (CellTiter-Glo, 4 days); assay type: cell-based; conditions: 50% proliferation inhibitory concentration, four days, read-out: NCl-H441 IC50
Summary of the method: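 Step one: dispense the test compound in serial DMSO dilutions. Step three: add the reagent and measure […].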

Row | SMILES | pKd [2] | pIC50 [3] | HRAS /KRAS (HRAS wild-type protein) | NRAS /KRAS [1]
1 | CCO[C@@H]1C[C@H]2C(=O)NC3(CCC3)C(=O)N(C)[C@@H](C3CCCC3)C(=O)N(C)[C@H](C(=O)N(C)C)CC(=O)N(C)[C@@H](CC(C)C)C(=O)N[C@@H]([C@@H](C)CC)C(=O)N(C)CC(=O)N(C)[C@H]3C/C=C\CCN(C3=O)[C@@H](Cc3ccc(C(F)(F)F)cc3)C(=O)N(C)CC(=O)N[C@@H](CCc3cc(F)c(Cl)c(F)c3)C(=O)N2C1 [PP1263] | 9.64 | 7.72 | A (a compound having 10 or more and less than 20 is denoted as A) | A (a compound having 10 or more and less than 20 is denoted as A)
2 | CCO[C@@H]1C[C@H]2C(=O)NC3(CCC3)C(=O)N(C)[C@@H](C3CCCC3)C(=O)N(C)[C@H](C(=O)N(C)C)CC(=O)N(C)[C@@H](CC)C(=O)N[C@@H]([C@@H](C)CC)C(=O)N(C)CC(=O)N(C)[C@H]3C/C=C\CCN(C3=O)[C@@H](Cc3ccc(C(F)(F)F)cc3)C(=O)N(C)CC(=O)N[C@@H](CCc3ccc(C(F)(F)F)c(C)c3)C(=O)N2C1 [PP1265] | 9.77 | 7.85 | B (a compound having 3 or more and less than 10 is denoted as B) | A (a compound having 10 or more and less than 20 is denoted as A)
3 | CCOC[C@H]1C(=O)N[C@@H]([C@@H](C)CC)C(=O)N(C)CC(=O)N(C)[C@H]2C/C=C\CCN(C2=O)[C@@H](Cc2ccc(C(F)(F)F)cc2)C(=O)N(C)CC(=O)N[C@@H](CCc2cc(F)c(C(F)(F)F)c(F)c2)C(=O)N2C[C@H](OCC)C[C@H]2C(=O)NC2(CCC2)C(=O)N(C)[C@@H](C2CCCC2)C(=O)N(C)[C@H](C(=O)N(C)C)CC(=O)N1C [PP1266] | 10.35 | 7.91 | A (a compound having 10 or more and less than 20 is denoted as A) | A (a compound having 10 or more and less than 20 is denoted as A)
4 | CCO[C@@H]1C[C@H]2C(=O)NC3(CCCC3)C(=O)N(C)[C@@H](C3CCCC3)C(=O)N(C)[C@H](C(=O)N(C)C)CC(=O)N(C)[C@@H](CC)C(=O)N[C@@H]([C@@H](C)CC)C(=O)N(C)CC(=O)N(C)[C@H]3C/C=C\CCN(C3=O)[C@@H](Cc3ccc(C(F)(F)F)cc3)C(=O)N(C)CC(=O)N[C@@H](CCc3cc(F)c(C(F)(F)F)c(F)c3)C(=O)N2C1 [PP1276] | 10.18 | 7.68 | B (a compound having 3 or more and less than 10 is denoted as B) | A (a compound having 10 or more and less than 20 is denoted as A)
5 | CCO[C@@H]1C[C@H]2C(=O)NC3(CCC3)C(=O)N(C)[C@@H](C3CCCC3)C(=O)N(C)[C@H](C(=O)N3CCOCC3)CC(=O)N(C)[C@@H](CC(C)C)C(=O)N[C@@H]([C@@H](C)CC)C(=O)N(C)CC(=O)N(C)[C@H]3C/C=C\CCN(C3=O)[C@@H](Cc3ccc(C(F)(F)F)cc3)C(=O)N(C)CC(=O)N[C@@H](CCc3cc(F)c(C(F)(F)F)c(F)c3)C(=O)N2C1 [PP1282] | 9.70 | 7.91 | A (a compound having 10 or more and less than 20 is denoted as A) | A (a compound having 10 or more and less than 20 is denoted as A)
6 | CCO[C@@H]1C[C@H]2C(=O)NC3(CCC3)C(=O)N(C)[C@@H](C(CC)CC)C(=O)N(C)[C@H](C(=O)N3CCOCC3)CC(=O)N(C)[C@@H](CC)C(=O)N[C@@H]([C@@H](C)CC)C(=O)N(C)CC(=O)N(C)[C@H]3C/C=C\CCN(C3=O)[C@@H](Cc3ccc(C(F)(F)F)cc3)C(=O)N(C)CC(=O)N[C@@H](CCc3cc(F)c(C(F)(F)F)c(F)c3)C(=O)N2C1 [PP1286] | 9.19 | 7.23 | A (a compound having 10 or more and less than 20 is denoted as A) | AA (a compound having 20 or more is denoted as AA)
7 | CCO[C@@H]1C[C@H]2C(=O)NC3(CCC3)C(=O)N(C)[C@@H](C3CCCC3)C(=O)N(C)[C@H](C(=O)N3CCCCC3)CC(=O)N(C)[C@@H](CC)C(=O)N[C@@H]([C@@H](C)CC)C(=O)N(C)CC(=O)N(C)[C@H]3C/C=C\CCN(C3=O)[C@@H](Cc3ccc(C(F)(F)F)cc3)C(=O)N(C)CC(=O)N[C@@H](CCc3cc(F)c(C(F)(F)F)c(F)c3)C(=O)N2C1 [PP1289] | 9.77 | 7.46 | A (a compound having 10 or more and less than 20 is denoted as A) | AA (a compound having 20 or more is denoted as AA)

Continued, in another order:

Row | pKd [2] | pIC50 [3] | SMILES | HRAS /KRAS (HRAS wild-type protein) | NRAS /KRAS [1]
8 | 10.34 | 7.97 | CCO[C@@H]1C[C@H]2C(=O)NC3(CCC3)C(=O)N(C)[C@@H](C3CCCC3)C(=O)N(C)[C@H](C(=O)N(C)C)CC(=O)N(C)[C@@H](COCC(F)(F)F)C(=O)N[C@@H]([C@@H](C)CC)C(=O)N(C)CC(=O)N(C)[C@H]3C/C=C\CCN(C3=O)[C@@H](Cc3ccc(C(F)(F)F)cc3)C(=O)N(C)CC(=O)N[C@@H](CCc3cc(F)c(C(F)(F)F)c(F)c3)C(=O)N2C1 [PP1267] | A (a compound having 10 or more and less than 20 is denoted as A) | A (a compound having 10 or more and less than 20 is denoted as A)
9 | 10.35 | 7.92 | CCO[C@@H]1C[C@H]2C(=O)NC3(CCC3)C(=O)N(C)[C@@H](C3CCCC3)C(=O)N(C)[C@H](C(=O)N(C)C)CC(=O)N(C)[C@@H](COC3CC3)C(=O)N[C@@H]([C@@H](C)CC)C(=O)N(C)CC(=O)N(C)[C@H]3C/C=C\CCN(C3=O)[C@@H](Cc3ccc(C(F)(F)F)cc3)C(=O)N(C)CC(=O)N[C@@H](CCc3cc(F)c(C(F)(F)F)c(F)c3)C(=O)N2C1 [PP1268] | A (a compound having 10 or more and less than 20 is denoted as A) | A (a compound having 10 or more and less than 20 is denoted as A)
10 | 10.27 | 7.04 | CC[C@H](C)[C@@H]1NC(=O)[C@H](C)N(C)C(=O)C[C@@H](C(=O)N(C)C)N(C)C(=O)[C@H](C2CCCC2)N(C)C(=O)C2(CCC2)NC(=O)[C@@H]2CCCN2C(=O)[C@H](CCc2cc(F)c(C(F)(F)F)c(F)c2)NC(=O)CN(C)C(=O)[C@H](Cc2ccc(C(F)(F)F)cc2)N2CC/C=C\C[C@@H](C2=O)N(C)C(=O)CN(C)C1=O [PP1271] | A (a compound having 10 or more and less than 20 is denoted as A) | AA (a compound having 20 or more is denoted as AA)
11 | 9.96 | 7.62 | CC[C@H](C)[C@@H]1NC(=O)[C@H](CC(C)C)N(C)C(=O)C[C@@H](C(=O)N(C)C)N(C)C(=O)[C@H](C2CCCC2)N(C)C(=O)C2(CCC2)NC(=O)[C@@H]2CCCN2C(=O)[C@H](CCc2cc(F)c(C(F)(F)F)c(F)c2)NC(=O)CN(C)C(=O)[C@H](Cc2ccc(C(F)(F)F)cc2)N2CC/C=C\C[C@@H](C2=O)N(C)C(=O)CN(C)C1=O [PP1272] | A (a compound having 10 or more and less than 20 is denoted as A) | A (a compound having 10 or more and less than 20 is denoted as A)
12 | 9.92 | 7.78 | CC[C@H](C)[C@@H]1NC(=O)[C@H](CC)N(C)C(=O)C[C@@H](C(=O)N(C)C)N(C)C(=O)[C@H](C2CCCC2)N(C)C(=O)C2(CCCC2)NC(=O)[C@@H]2CCCN2C(=O)[C@H](CCc2cc(F)c(C(F)(F)F)c(F)c2)NC(=O)CN(C)C(=O)[C@H](Cc2ccc(C(F)(F)F)cc2)N2CC/C=C\C[C@@H](C2=O)N(C)C(=O)CN(C)C1=O [PP1273] | B (a compound having 3 or more and less than 10 is denoted as B) | A (a compound having 10 or more and less than 20 is denoted as A)
13 | 9.82 | 7.61 | CCO[C@@H]1C[C@H]2C(=O)NC3(CCC3)C(=O)N(C)[C@@H](C3CCCC3)C(=O)N(C)[C@H](C(=O)N3CCOCC3)CC(=O)N(C)[C@@H](CC(F)F)C(=O)N[C@@H]([C@@H](C)CC)C(=O)N(C)CC(=O)N(C)[C@H]3C/C=C\CCN(C3=O)[C@@H](Cc3ccc(C(F)(F)F)cc3)C(=O)N(C)CC(=O)N[C@@H](CCc3cc(F)c(C(F)(F)F)c(F)c3)C(=O)N2C1 [PP1285] | A (a compound having 10 or more and less than 20 is denoted as A) | AA (a compound having 20 or more is denoted as AA)
14 | 9.25 | 7.30 | CCO[C@@H]1C[C@H]2C(=O)NC3(CCC3)C(=O)N(C)[C@@H](C(CC)CC)C(=O)N(C)[C@H](C(=O)N3CCOCC3)CC(=O)N(C)[C@@H](CC(C)C)C(=O)N[C@@H]([C@@H](C)CC)C(=O)N(C)CC(=O)N(C)[C@H]3C/C=C\CCN(C3=O)[C@@H](Cc3ccc(C(F)(F)F)cc3)C(=O)N(C)CC(=O)N[C@@H](CCc3cc(F)c(C(F)(F)F)c(F)c3)C(=O)N2C1 [PP1287] | A (a compound having 10 or more and less than 20 is denoted as A) | AA (a compound having 20 or more is denoted as AA)
15 | 9.62 | 7.81 | CCO[C@@H]1C[C@H]2C(=O)NC3(CCC3)C(=O)N(C)[C@@H](C3CCCC3)C(=O)N(C)[C@H](C(=O)N3CCCCC3)CC(=O)N(C)[C@@H](CC(C)C)C(=O)N[C@@H]([C@@H](C)CC)C(=O)N(C)CC(=O)N(C)[C@H]3C/C=C\CCN(C3=O)[C@@H](Cc3ccc(C(F)(F)F)cc3)C(=O)N(C)CC(=O)N[C@@H](CCc3cc(F)c(C(F)(F)F)c(F)c3)C(=O)N2C1 [PP1290] | A (a compound having 10 or more and less than 20 is denoted as A) | AA (a compound having 20 or more is denoted as AA)
